Drawing on ChEMBL document CHEMBL5316337, “Critical Role of Position 10 Residue in the Polymyxin Antimicrobial Activity” (J Med Chem, 2023), this text covers MIC and MTD for 4 compounds.

Data set [1] deals with Acinetobacter baumannii. Kind of data set: Antibacterial activity against polymyxin-susceptible Acinetobacter baumannii ATCC 19606 clinical isolates assessed as reduction in bacterial growth by broth microdilution method. In kind it is functional.
Data set [2] relates to Acinetobacter baumannii. Kind of data set: Antibacterial activity against Carbapenem-resistant Acinetobacter baumannii FADD1-AB034 clinical isolates assessed as reduction in bacterial growth by broth microdilution method. In kind it is functional. On the technique in general: In broth dilution the organism is exposed to a series of concentrations in liquid medium.
For data set [3], the system named is Klebsiella pneumoniae. Kind of data set: Antibacterial activity against Carbapenem-resistant Klebsiella pneumoniae FADD1-KP032 clinical isolates assessed as reduction in bacterial growth by broth microdilution method. In kind it is functional.
Data set [4] in a line: Acute toxicity in Swiss mouse assessed as maximum tolerated dose administered intravenously measured over 24 hrs. The conditions noted are these: in vivo, route iv.
Data set [5] relates to Pseudomonas aeruginosa. Kind of data set: Antibacterial activity against polymyxin-susceptible Pseudomonas aeruginosa FADD1-PA038 clinical isolates assessed as reduction in bacterial growth by broth microdilution method. In kind it is functional.
Data set [6] deals with Pseudomonas aeruginosa. Kind of data set: Antibacterial activity against Carbapenem-resistant Pseudomonas aeruginosa FADD1-PA001 clinical isolates assessed as reduction in bacterial growth by broth microdilution method. In kind it is functional.
In data set [7] the test system is Klebsiella pneumoniae. Kind of data set: Antibacterial activity against Carbapenem-resistant Klebsiella pneumoniae FADD1-KP065 clinical isolates assessed as reduction in bacterial growth by broth microdilution method. In kind it is functional.
In data set [8] the test system is Enterobacter cloacae. Kind of data set: Antibacterial activity against polymyxin-susceptible Enterobacter cloacae FADD1-EC006 clinical isolates assessed as reduction in bacterial growth by broth microdilution method. In kind it is functional.
For data set [9], the system named is Acinetobacter baumannii. Kind of data set: Antibacterial activity against polymyxin-susceptible Acinetobacter baumannii ATCC 17978 clinical isolates assessed as reduction in bacterial growth by broth microdilution method. In kind it is functional.
The subject of data set [10] is Klebsiella pneumoniae. Kind of data set: Antibacterial activity against Carbapenem-resistant Klebsiella pneumoniae FADD1-KP022 clinical isolates assessed as reduction in bacterial growth by broth microdilution method. In kind it is functional.
In data set [11] the test system is Pseudomonas aeruginosa. Kind of data set: Antibacterial activity against polymyxin-susceptible Pseudomonas aeruginosa FADD1-PA025 clinical isolates assessed as reduction in bacterial growth by broth microdilution method. In kind it is functional.
Data set [12] relates to Enterobacter cloacae. Kind of data set: Antibacterial activity against polymyxin-susceptible Enterobacter cloacae FADD1-EC003 clinical isolates assessed as reduction in bacterial growth by broth microdilution method. In kind it is functional.
Data set [13] relates to Enterobacter cloacae. Kind of data set: Antibacterial activity against polymyxin-susceptible Enterobacter cloacae FADD1-EC001 clinical isolates assessed as reduction in bacterial growth by broth microdilution method. In kind it is functional.
The subject of data set [14] is Pseudomonas aeruginosa. Kind of data set: Antibacterial activity against polymyxin-susceptible Pseudomonas aeruginosa ATCC 27853 clinical isolates assessed as reduction in bacterial growth by broth microdilution method. In kind it is functional.
Data set [15] concerns Acinetobacter baumannii. Kind of data set: Antibacterial activity against Carbapenem-resistant Acinetobacter baumannii FADD1-AB030 clinical isolates assessed as reduction in bacterial growth by broth microdilution method. In kind it is functional.
Data set [16] concerns Pseudomonas aeruginosa. Kind of data set: Antibacterial activity against Carbapenem-resistant Pseudomonas aeruginosa FADD1-PA022 clinical isolates assessed as reduction in bacterial growth by broth microdilution method. In kind it is functional.
The subject of data set [17] is Klebsiella pneumoniae. Kind of data set: Antibacterial activity against Carbapenem-resistant Klebsiella pneumoniae BM1 clinical isolates assessed as reduction in bacterial growth by broth microdilution method. In kind it is functional.
The subject of data set [18] is Klebsiella pneumoniae. Kind of data set: Antibacterial activity against polymyxin-susceptible Klebsiella pneumoniae ATCC 700721 clinical isolates assessed as reduction in bacterial growth by broth microdilution method. In kind it is functional.

In brackets after ≈: the same amount, converted by molar mass. Bounds are passed on as bounds.

One may read the MIC as the lowest concentration found to suppress growth. Broadly, the MTD is the highest dose tested that stayed within the study's limit of toxicity. As to `CC[C@H](C)CCCCC(=O)N[C@@H](CCN)C(=O)N[C@H](C(=O)N[C@@H](CCN)C(=O)N[C@H]1CCNC(=O)[C@H]([C@@H](C)O)NC(=O)[C@H](CCN)NC(=O)[C@H](CCN)NC(=O)[C@H](CC(C)C)NC(=O)[C@@H](Cc2ccccc2)NC(=O)[C@H](CCN)NC1=O)[C@@H](C)O`, the MIC was 1 µg/mL (≈ 0.831 µM) in the data set on Acinetobacter baumannii [1]; 1 µg/mL (≈ 0.831 µM) with Acinetobacter baumannii [2]; 0.25 µg/mL (≈ 0.208 µM) in the data set with Klebsiella pneumoniae [3]; 4 µg/mL (≈ 3.32 µM) in the data set on Pseudomonas aeruginosa [5]; 2 µg/mL (≈ 1.66 µM) in the data set on Pseudomonas aeruginosa [6]; 0.5 µg/mL (≈ 0.415 µM) with Klebsiella pneumoniae [7]. For the same compound, the MIC in the data set with Enterobacter cloacae [8] was found to be 0.5 µg/mL (≈ 0.415 µM); with Acinetobacter baumannii [9] it was 1 µg/mL (≈ 0.831 µM); in the data set with Klebsiella pneumoniae [10] it was 0.25 µg/mL (≈ 0.208 µM); in the data set with Pseudomonas aeruginosa [11], 4 µg/mL (≈ 3.32 µM); with Enterobacter cloacae [12], 0.5 µg/mL (≈ 0.415 µM); with Enterobacter cloacae [13] it was 0.5 µg/mL (≈ 0.415 µM). Besides, the MIC in the data set with Pseudomonas aeruginosa [14] is 1 µg/mL (≈ 0.831 µM); with Acinetobacter baumannii [15] it was 1 µg/mL (≈ 0.831 µM); in the data set on Pseudomonas aeruginosa [16], 2 µg/mL (≈ 1.66 µM); with Klebsiella pneumoniae [17], 0.5 µg/mL (≈ 0.415 µM); with Klebsiella pneumoniae [18], 1 µg/mL (≈ 0.831 µM). In data set [4], the MTD at 24 h was 4 mg/kg.
`CC[C@H](C)CCCCC(=O)N[C@@H](CCN)C(=O)N[C@H](C(=O)N[C@@H](CCN)C(=O)N[C@H]1CCNC(=O)[C@H](CCCCN)NC(=O)[C@H](CCN)NC(=O)[C@H](CCN)NC(=O)[C@H](CC(C)C)NC(=O)[C@@H](Cc2ccccc2)NC(=O)[C@H](CCN)NC1=O)[C@@H](C)O`: the MIC with Acinetobacter baumannii [1] was 32 µg/mL (≈ 26 µM); with Acinetobacter baumannii [2], 8 µg/mL (≈ 6.5 µM); with Klebsiella pneumoniae [3], 32 µg/mL (≈ 26 µM); in the data set with Pseudomonas aeruginosa [5] it was more than 32 µg/mL; with Pseudomonas aeruginosa [6], more than 32 µg/mL; in the data set on Klebsiella pneumoniae [7], 4 µg/mL (≈ 3.25 µM). The MIC in the data set with Enterobacter cloacae [8] is 32 µg/mL (≈ 26 µM); in the data set on Acinetobacter baumannii [9], 8 µg/mL (≈ 6.5 µM); in the data set on Klebsiella pneumoniae [10], 2 µg/mL (≈ 1.63 µM); in the data set with Pseudomonas aeruginosa [11], more than 32 µg/mL; in the data set with Enterobacter cloacae [12], 16 µg/mL (≈ 13 µM); with Enterobacter cloacae [13], 32 µg/mL (≈ 26 µM). Further, the MIC in the data set with Pseudomonas aeruginosa [14] is more than 32 µg/mL; in the data set with Acinetobacter baumannii [15], 32 µg/mL (≈ 26 µM); with Pseudomonas aeruginosa [16], 1 µg/mL (≈ 0.813 µM); with Klebsiella pneumoniae [17], more than 32 µg/mL; in the data set on Klebsiella pneumoniae [18], more than 32 µg/mL.
Take `CC[C@H](C)CCCCC(=O)N[C@@H](CCN)C(=O)N[C@H](C(=O)N[C@@H](CCN)C(=O)N[C@H]1CCNC(=O)[C@H](CC(=O)O)NC(=O)[C@H](CCN)NC(=O)[C@H](CCN)NC(=O)[C@H](CC(C)C)NC(=O)[C@@H](Cc2ccccc2)NC(=O)[C@H](CCN)NC1=O)[C@@H](C)O`: the MIC with Acinetobacter baumannii [1] was more than 32 µg/mL; in the data set with Acinetobacter baumannii [2], more than 32 µg/mL; with Klebsiella pneumoniae [3], 32 µg/mL (≈ 26.3 µM); in the data set on Pseudomonas aeruginosa [5] it was more than 32 µg/mL; with Pseudomonas aeruginosa [6], more than 32 µg/mL; in the data set on Klebsiella pneumoniae [7] it was 16 µg/mL (≈ 13.1 µM). Moreover, the MIC in the data set on Enterobacter cloacae [8] is more than 32 µg/mL; in the data set on Acinetobacter baumannii [9], more than 32 µg/mL; in the data set with Klebsiella pneumoniae [10], 16 µg/mL (≈ 13.1 µM); in the data set on Pseudomonas aeruginosa [11], more than 32 µg/mL; in the data set on Enterobacter cloacae [12], more than 32 µg/mL; in the data set with Enterobacter cloacae [13] it was more than 32 µg/mL. Further, the MIC is more than 32 µg/mL in the data set with Pseudomonas aeruginosa [14]; more than 32 µg/mL in the data set with Acinetobacter baumannii [15]; 8 µg/mL (≈ 6.57 µM) in the data set with Pseudomonas aeruginosa [16]; 32 µg/mL (≈ 26.3 µM) in the data set on Klebsiella pneumoniae [17]; more than 32 µg/mL in the data set with Klebsiella pneumoniae [18].
For the compound `CC[C@H](C)CCCCC(=O)N[C@@H](CCN)C(=O)N[C@H](C(=O)N[C@@H](CCN)C(=O)N[C@H]1CCNC(=O)[C@H](CCC(=O)O)NC(=O)[C@H](CCN)NC(=O)[C@H](CCN)NC(=O)[C@H](CC(C)C)NC(=O)[C@@H](Cc2ccccc2)NC(=O)[C@H](CCN)NC1=O)[C@@H](C)O`, the MIC in the data set on Acinetobacter baumannii [1], in the data set with Acinetobacter baumannii [2], in the data set on Klebsiella pneumoniae [3], with Pseudomonas aeruginosa [5], in the data set on Pseudomonas aeruginosa [6] and in the data set on Klebsiella pneumoniae [7] was more than 32 µg/mL in each case. The MIC in the data set with Enterobacter cloacae [8] was more than 32 µg/mL; in the data set with Acinetobacter baumannii [9], more than 32 µg/mL; in the data set with Klebsiella pneumoniae [10], 32 µg/mL (≈ 26 µM); in the data set on Pseudomonas aeruginosa [11], more than 32 µg/mL; in the data set with Enterobacter cloacae [12], more than 32 µg/mL; in the data set on Enterobacter cloacae [13], more than 32 µg/mL. The MIC in the data set with Pseudomonas aeruginosa [14], in the data set on Acinetobacter baumannii [15], in the data set with Pseudomonas aeruginosa [16], with Klebsiella pneumoniae [17] and in the data set on Klebsiella pneumoniae [18] was more than 32 µg/mL in each case.
